Data on three compounds can be found in PubChem BioAssay AID1259407 (Chemical Carcinogenesis Research Information System (CCRIS), 2018).

Calls of active or inactive are those of the source. The rule behind the calls is not given here.

In the data set the test system is CCRIS mutagenicity, Ames/micronucleus/aberration tests. The data set is described as follows: CCRIS mutagenicity studies.
The mark [1] stands for this setting: Test System: AMES SALMONELLA TYPHIMURIUM, Strain/Indicator: TA100, Metabolic Activation: NONE, Method: PREINCUBATION
The mark [2] stands for this setting: Test System: AMES SALMONELLA TYPHIMURIUM, Strain/Indicator: TA1535, Metabolic Activation: NONE, Method: PREINCUBATION

As for `O=C1C=CC(=O)C=C1`, the mutagenic call reads like this: (Test System: AMES SALMONELLA TYPHIMURIUM, Strain/Indicator: TA97, Metabolic Activation: NONE, Method: STANDARD PLATE) “inactive; negative”; (Test System: AMES SALMONELLA TYPHIMURIUM, Strain/Indicator: TA97, Metabolic Activation: RAT, LIVER, S-9, AROCLOR 1254, Method: PREINCUBATION) “inactive; negative”; (Test System: AMES SALMONELLA TYPHIMURIUM, Strain/Indicator: TA97, Metabolic Activation: RAT, LIVER, S-9, PCB, Method: STANDARD PLATE) “inactive; negative”; (Test System: AMES SALMONELLA TYPHIMURIUM, Strain/Indicator: TA97, Metabolic Activation: RAT, LIVER, S-9, PHENOBARBITAL, Method: PREINCUBATION) “inactive; negative”; (Test System: AMES SALMONELLA TYPHIMURIUM, Strain/Indicator: TA98, Metabolic Activation: NONE, Method: STANDARD PLATE) “inactive; negative”; (Test System: AMES SALMONELLA TYPHIMURIUM, Strain/Indicator: TA98, Metabolic Activation: RAT, LIVER, S-9, AROCLOR 1254, Method: PREINCUBATION) “inactive; negative”. Besides, the mutagenic call is “inactive; negative” (Test System: AMES SALMONELLA TYPHIMURIUM, Strain/Indicator: TA98, Metabolic Activation: RAT, LIVER, S-9, PCB, Method: STANDARD PLATE); “inactive; negative” (Test System: AMES SALMONELLA TYPHIMURIUM, Strain/Indicator: TA98, Metabolic Activation: RAT, LIVER, S-9, PHENOBARBITAL AND 5,6-BENZOFLAVONE, Method: PREINCUBATION); “active; positive” (Test System: AMES SALMONELLA TYPHIMURIUM, Strain/Indicator: TA98, Metabolic Activation: RAT, LIVER, S-9, PHENOBARBITAL, Method: PREINCUBATION); “inactive; negative” (Test System: AMES SALMONELLA TYPHIMURIUM, Strain/Indicator: TA100, Metabolic Activation: NONE, Method: FLUCTUATION TEST); “inactive; negative” under setting [1]; “inactive; negative” (Test System: AMES SALMONELLA TYPHIMURIUM, Strain/Indicator: TA100, Metabolic Activation: NONE, Method: STANDARD PLATE). The mutagenic call is “inactive; negative” (Test System: AMES SALMONELLA TYPHIMURIUM, Strain/Indicator: TA100, Metabolic Activation: RAT, LIVER, S-9, AROCLOR 1254, Method: PREINCUBATION); “active; positive” (Test System: AMES SALMONELLA TYPHIMURIUM, Strain/Indicator: TA100, Metabolic Activation: RAT, LIVER, S-9, PCB, Method: FLUCTUATION TEST); “inactive; negative” (Test System: AMES SALMONELLA TYPHIMURIUM, Strain/Indicator: TA100, Metabolic Activation: RAT, LIVER, S-9, PCB, Method: STANDARD PLATE); “active; positive” (Test System: AMES SALMONELLA TYPHIMURIUM, Strain/Indicator: TA100, Metabolic Activation: RAT, LIVER, S-9, PHENOBARBITAL, Method: PREINCUBATION); “inactive; negative” (Test System: AMES SALMONELLA TYPHIMURIUM, Strain/Indicator: TA102, Metabolic Activation: NONE, Method: PREINCUBATION); “inactive; negative” (Test System: AMES SALMONELLA TYPHIMURIUM, Strain/Indicator: TA102, Metabolic Activation: RAT, LIVER, S-9, AROCLOR 1254, Method: PREINCUBATION). The mutagenic call is “inactive; negative” (Test System: AMES SALMONELLA TYPHIMURIUM, Strain/Indicator: TA102, Metabolic Activation: RAT, LIVER, S-9, PHENOBARBITAL AND 5,6-BENZOFLAVONE, Method: PREINCUBATION); “inactive; negative” (Test System: AMES SALMONELLA TYPHIMURIUM, Strain/Indicator: TA104, Metabolic Activation: RAT, LIVER, S-9, AROCLOR 1254, Method: PREINCUBATION); “inactive; negative” (Test System: AMES SALMONELLA TYPHIMURIUM, Strain/Indicator: TA104, Metabolic Activation: RAT, LIVER, S-9, PHENOBARBITAL AND 5,6-BENZOFLAVONE, Method: PREINCUBATION); “inactive; negative” under setting [2]; “inactive; negative” (Test System: AMES SALMONELLA TYPHIMURIUM, Strain/Indicator: TA1535, Metabolic Activation: RAT, LIVER, S-9, AROCLOR 1254, Method: PREINCUBATION); “inactive; negative” (Test System: AMES SALMONELLA TYPHIMURIUM, Strain/Indicator: TA2637, Metabolic Activation: NONE, Method: PREINCUBATION). For the same compound, the mutagenic call was “inactive; negative” (Test System: AMES SALMONELLA TYPHIMURIUM, Strain/Indicator: TA2637, Metabolic Activation: RAT, LIVER, S-9, PHENOBARBITAL AND 5,6-BENZOFLAVONE, Method: PREINCUBATION); “active; positive” (Test System: CHINESE HAMSTER V-79, Strain/Indicator: V-79/6-THIOGUANINE, Metabolic Activation: NONE); “active; positive” (Test System: MOUSE LYMPHOMA, Strain/Indicator: L5178Y (TK+/TK-), Metabolic Activation: NONE, Method: SUSPENSION/PLATE).

Turning to `O=C(O)c1cc2ccccc2cc1O`, the mutagenic call (End Point: In vitro chromosomal aberrations, Test System: Chinese hamster lung (CHL/IU) cells, Metabolic Activation: Rat, Liver, S9, Phenobarbital and 5,6-benzoflavone) is “active; positive (structural changes and ploidy). precipitation of test chemical at 1.0”; the mutagenic call (Test System: AMES SALMONELLA TYPHIMURIUM, Strain/Indicator: TA98, Metabolic Activation: NONE, Method: PREINCUBATION) is “inactive; negative”; the mutagenic call (Test System: AMES SALMONELLA TYPHIMURIUM, Strain/Indicator: TA98, Metabolic Activation: RAT LIVER S-9, PHENOBARBITAL AND BETA-NAPHTHOFLAVONE, Method: PREINCUBATION) is “inactive; negative”; the mutagenic call (Test System: AMES SALMONELLA TYPHIMURIUM, Strain/Indicator: TA98, Metabolic Activation: RAT, LIVER, S-9, KC 500, Method: PREINCUBATION) was “inactive; negative”; the mutagenic call under setting [1] is “inactive; negative”; the mutagenic call (Test System: AMES SALMONELLA TYPHIMURIUM, Strain/Indicator: TA100, Metabolic Activation: RAT LIVER S-9, PHENOBARBITAL AND BETA-NAPHTHOFLAVONE, Method: PREINCUBATION) was “inactive; negative”. Moreover, the mutagenic call by setting is: (Test System: AMES SALMONELLA TYPHIMURIUM, Strain/Indicator: TA100, Metabolic Activation: RAT, LIVER, S-9, KC 500, Method: PREINCUBATION) “inactive; negative”; under setting [2], “inactive; negative”; (Test System: AMES SALMONELLA TYPHIMURIUM, Strain/Indicator: TA1535, Metabolic Activation: RAT LIVER S-9, PHENOBARBITAL AND BETA-NAPHTHOFLAVONE, Method: PREINCUBATION) “inactive; negative”; (Test System: AMES SALMONELLA TYPHIMURIUM, Strain/Indicator: TA1535, Metabolic Activation: RAT, LIVER, S-9, KC 500, Method: PREINCUBATION) “inactive; negative”; (Test System: AMES SALMONELLA TYPHIMURIUM, Strain/Indicator: TA1537, Metabolic Activation: RAT LIVER S-9, PHENOBARBITAL AND BETA-NAPHTHOFLAVONE, Method: PREINCUBATION) “inactive; negative”; (Test System: AMES SALMONELLA TYPHIMURIUM, Strain/Indicator: TA1537, Metabolic Activation: RAT, LIVER, S-9, KC 500, Method: PREINCUBATION) “inactive; negative”. The mutagenic call is “inactive; negative” (Test System: AMES SALMONELLA TYPHIMURIUM, Strain/Indicator: TA1538, Metabolic Activation: NONE, Method: PREINCUBATION); “inactive; negative” (Test System: AMES SALMONELLA TYPHIMURIUM, Strain/Indicator: TA1538, Metabolic Activation: RAT LIVER S-9, PHENOBARBITAL AND BETA-NAPHTHOFLAVONE, Method: PREINCUBATION); “inactive; negative” (Test System: AMES SALMONELLA TYPHIMURIUM, Strain/Indicator: TA1538, Metabolic Activation: RAT, LIVER, S-9, KC 500, Method: PREINCUBATION); “inactive; negative” (Test System: E. COLI, Strain/Indicator: WP2UVRA/PKM101, Metabolic Activation: NONE, Method: PREINCUBATION); “inactive; negative” (Test System: E. COLI, Strain/Indicator: WP2UVRA/PKM101, Metabolic Activation: RAT LIVER S-9, PHENOBARBITAL AND BETA-NAPHTHOFLAVONE, Method: PREINCUBATION); “inactive; negative” (Test System: E. COLI, Strain/Indicator: WP2 UVRA, Metabolic Activation: NONE, Method: PREINCUBATION). In addition, the mutagenic call is “inactive; negative” (Test System: E. COLI, Strain/Indicator: WP2UVRA, Metabolic Activation: NONE, Method: PREINCUBATION); “inactive; negative” (Test System: E. COLI, Strain/Indicator: WP2UVRA, Metabolic Activation: RAT LIVER S-9, PHENOBARBITAL AND BETA-NAPHTHOFLAVONE, Method: PREINCUBATION); “inactive; negative” (Test System: E. COLI, Strain/Indicator: WP2 UVRA, Metabolic Activation: RAT, LIVER, S-9, KC 500, Method: PREINCUBATION).

Take `[Cl][Sn]([c]1ccccc1)([c]1ccccc1)[c]1ccccc1`: the mutagenic call (Test System: AMES SALMONELLA TYPHIMURIUM, Strain/Indicator: TA98, Metabolic Activation: NONE, Method: SUSPENSION/PLATE) was “inactive; negative” and the mutagenic call (Test System: AMES SALMONELLA TYPHIMURIUM, Strain/Indicator: TA100, Metabolic Activation: NONE, Method: SUSPENSION/PLATE) is “inactive; negative”.
